# According to article PMC7202080 (Cell calcium, 2020):
# Target: TRPM7 (Mus musculus, UniProt Q923J1)
# Experiment: Fura-2 Ca2+ imaging in LS8 cells
# Assay type: cell-based
# Chain of TRPM7 (Q923J1 whole entry): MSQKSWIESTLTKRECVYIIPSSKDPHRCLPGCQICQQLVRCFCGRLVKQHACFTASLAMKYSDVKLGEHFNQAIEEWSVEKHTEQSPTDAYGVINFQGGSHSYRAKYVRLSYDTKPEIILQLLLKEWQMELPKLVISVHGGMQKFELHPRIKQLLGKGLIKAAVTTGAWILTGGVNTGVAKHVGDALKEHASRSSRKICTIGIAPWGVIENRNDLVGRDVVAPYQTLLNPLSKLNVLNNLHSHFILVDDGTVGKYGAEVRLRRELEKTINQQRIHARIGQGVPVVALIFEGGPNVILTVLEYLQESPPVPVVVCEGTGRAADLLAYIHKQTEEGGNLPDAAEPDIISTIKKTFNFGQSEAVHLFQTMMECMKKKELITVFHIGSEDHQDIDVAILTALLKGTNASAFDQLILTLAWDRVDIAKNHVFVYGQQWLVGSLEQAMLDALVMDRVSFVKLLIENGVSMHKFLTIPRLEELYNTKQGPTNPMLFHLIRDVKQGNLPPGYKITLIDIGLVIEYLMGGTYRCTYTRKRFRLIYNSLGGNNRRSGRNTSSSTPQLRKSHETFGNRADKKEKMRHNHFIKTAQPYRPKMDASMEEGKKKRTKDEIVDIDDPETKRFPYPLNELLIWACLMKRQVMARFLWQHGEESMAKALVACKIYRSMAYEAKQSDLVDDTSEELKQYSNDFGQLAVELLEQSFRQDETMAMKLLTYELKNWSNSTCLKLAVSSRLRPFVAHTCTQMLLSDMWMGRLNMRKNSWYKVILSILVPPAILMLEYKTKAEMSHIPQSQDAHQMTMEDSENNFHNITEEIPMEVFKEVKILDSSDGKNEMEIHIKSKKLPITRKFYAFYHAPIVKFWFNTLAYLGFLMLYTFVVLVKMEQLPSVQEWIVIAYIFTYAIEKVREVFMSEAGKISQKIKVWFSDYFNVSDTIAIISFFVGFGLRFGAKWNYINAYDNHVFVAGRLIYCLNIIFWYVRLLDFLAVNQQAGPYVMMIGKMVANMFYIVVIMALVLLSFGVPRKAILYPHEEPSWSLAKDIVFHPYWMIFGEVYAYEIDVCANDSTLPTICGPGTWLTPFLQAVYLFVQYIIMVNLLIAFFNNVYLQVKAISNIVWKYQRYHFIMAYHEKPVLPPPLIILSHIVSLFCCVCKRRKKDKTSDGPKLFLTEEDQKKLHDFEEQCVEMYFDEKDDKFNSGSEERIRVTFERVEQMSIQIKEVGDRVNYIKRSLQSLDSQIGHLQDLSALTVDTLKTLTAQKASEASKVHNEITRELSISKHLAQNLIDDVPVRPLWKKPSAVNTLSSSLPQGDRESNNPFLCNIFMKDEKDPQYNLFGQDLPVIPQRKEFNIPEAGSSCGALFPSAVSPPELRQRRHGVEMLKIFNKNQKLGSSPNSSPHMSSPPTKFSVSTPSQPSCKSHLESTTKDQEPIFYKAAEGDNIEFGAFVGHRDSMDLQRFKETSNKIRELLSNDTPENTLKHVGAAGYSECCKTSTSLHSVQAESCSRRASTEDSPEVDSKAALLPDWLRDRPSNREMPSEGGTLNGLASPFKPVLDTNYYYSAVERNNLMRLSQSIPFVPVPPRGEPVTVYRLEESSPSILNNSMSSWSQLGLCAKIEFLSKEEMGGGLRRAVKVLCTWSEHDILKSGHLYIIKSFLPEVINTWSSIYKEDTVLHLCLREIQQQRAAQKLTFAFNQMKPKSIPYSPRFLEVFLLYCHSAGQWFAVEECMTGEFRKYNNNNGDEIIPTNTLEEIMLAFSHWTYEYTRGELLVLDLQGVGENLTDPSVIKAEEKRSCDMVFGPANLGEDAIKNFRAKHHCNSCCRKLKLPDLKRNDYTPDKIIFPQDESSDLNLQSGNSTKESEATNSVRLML
smiles,measurement,value
"Oc1ccc2c3c1O[C@H]1c4oc5ccccc5c4C[C@@]4(O)[C@@H](C2)N(CC2CC2)CC[C@]314 [NAL, naltriben]",EC50,~45 µM
